In brackets after ≈: the same amount, converted by molar mass.
How the values were obtained:
[1] = Cytotoxicity against rat L6 cells assessed as reduction in cell viability measured after 70 hrs by alamar blue reagent based fluorescence assay; type: toxicity
[2] = Solubility of compound in pH 6.5 phosphate buffer by nephelometry; type: physicochemical
[3] = Intrinsic clearance in human liver microsomes assessed per mg protein at 1 uM preincubated for 5 to 10 mins followed by NADPH-regenerating system addition and measured after 2 to 60 mins by LC-MS/MS analysis; type: ADME, Microsome; settings: time 2-60 min
[4] = Solubility of compound in pH 2 0.01 M HCl by nephelometry; type: physicochemical
[5] = Intrinsic clearance in mouse liver microsomes assessed per mg protein at 1 uM preincubated for 5 to 10 mins followed by NADPH-regenerating system addition and measured after 2 to 60 mins by LC-MS/MS analysis; type: ADME, Microsome; settings: time 2-60 min
[6] = Lipophilicity, log D of compound at pH 7.4 by gradient HPLC analysis; type: physicochemical; settings: buffer
Schistosoma mansoni [7] = assay: Antischistosomal activity against Schistosoma mansoni adult worms at 10 uM measured at 24 hrs interval for 72 hrs relative to control; type: functional
Schistosoma mansoni [8] = assay: Antischistosomal activity against Schistosoma mansoni NTS assessed as reduction in parasite viability measured at 24 hrs interval for 72 hrs by bright-field microscopy; type: functional, organism-based
Schistosoma mansoni [9] = assay: Antischistosomal activity against Schistosoma mansoni adult worms measured at 24 hrs interval for 72 hrs; type: functional, organism-based
Schistosoma mansoni [10] = assay: Antischistosomal activity against Schistosoma mansoni Liberian adult worms assessed as reduction in worm viability measured after 72 hrs by microscopy; type: functional, organism-based

Structure (SMILES)	IC50 at 70 h [1]	solubility kinetic [2]	intrinsic clearance [3]	solubility kinetic [4]	intrinsic clearance (CLint) [5]	logD [6]	Activity (Schistosoma mansoni [7])	IC50 (Schistosoma mansoni [8])	IC50 (Schistosoma mansoni [9])	IC50 (Schistosoma mansoni [10])
Cc1ccc(S(=O)(=O)N2CCc3[nH]c4ccccc4c3C2)cc1	29 µM	1.6 µg/mL (≈ 4.9 µM)	170 µL/min	1.6 µg/mL (≈ 4.9 µM)	540 µL/min	4.1				
NC(=O)c1ccc2[nH]c3c(c2c1)CN(S(=O)(=O)c1ccc(F)cc1)CC3	100 µM	6.3 µg/mL (≈ 16.9 µM)	124 µL/min	12.5 µg/mL (≈ 33.5 µM)	81 µL/min	2.6				
O=C(Nc1ccc(F)cc1)N1CCc2[nH]c3ccccc3c2C1	85 µM	6.3 µg/mL (≈ 20.4 µM)	82 µL/min	6.3 µg/mL (≈ 20.4 µM)	130 µL/min	3.4				
O=S(=O)(c1ccc(C(F)(F)F)cc1)N1CCc2[nH]c3ccccc3c2C1	81 µM	< 1.6 µg/mL	50 µL/min	< 1.6 µg/mL	431 µL/min	4.3				
O=S(=O)(c1ccccc1)N1CCc2[nH]c3ccccc3c2C1	100 µM	1.6 µg/mL (≈ 5.12 µM)	250 µL/min	1.6 µg/mL (≈ 5.12 µM)	> 866 µL/min	3.9				
O=C(c1ccc(F)cc1)N1CCc2[nH]c3ccccc3c2C1	69 µM	6.3 µg/mL (≈ 21.4 µM)	111 µL/min	6.3 µg/mL (≈ 21.4 µM)	184 µL/min	3.3	24%			
O=S(=O)(c1ccc(F)cc1)N1CCc2[nH]c3ccc(F)cc3c2C1	150 µM	1.6 µg/mL (≈ 4.59 µM)	105 µL/min	3.1 µg/mL (≈ 8.9 µM)	> 866 µL/min	4.1				
O=S(=O)(c1ccc(Cl)cc1)N1CCc2[nH]c3ccccc3c2C1	53 µM	1.6 µg/mL (≈ 4.61 µM)	74 µL/min	1.6 µg/mL (≈ 4.61 µM)	607 µL/min	4.2				
O=S(=O)(c1ccc(F)cc1)N1CCc2[nH]c3ccccc3c2CC1	83 µM	< 1.6 µg/mL	123 µL/min	< 1.6 µg/mL	> 866 µL/min	4.2				
O=S(=O)(Cc1ccc(F)cc1)N1CCc2[nH]c3ccccc3c2C1	56 µM	1.6 µg/mL (≈ 4.65 µM)	135 µL/min	3.1 µg/mL (≈ 9 µM)	688 µL/min	3.9				
O=S(=O)(c1ccc(Br)cc1)N1CCc2[nH]c3ccccc3c2C1	26 µM	< 1.6 µg/mL	102 µL/min	< 1.6 µg/mL	446 µL/min	4.4	67%	4.9 µM	4.4 µM	
O=C(O)c1ccc(S(=O)(=O)N2CCc3[nH]c4ccccc4c3C2)cc1	190 µM	25 µg/mL (≈ 70.1 µM)	11 µL/min	3.1 µg/mL (≈ 8.7 µM)	< 7 µL/min	1.6				
O=C(c1ccc2[nH]c3c(c2c1)CN(S(=O)(=O)c1ccc(F)cc1)CC3)N1CCOCC1	130 µM	6.3 µg/mL (≈ 14.2 µM)	89 µL/min	12.5 µg/mL (≈ 28.2 µM)	120 µL/min	3				
CS(=O)(=O)c1ccc(S(=O)(=O)N2CCc3[nH]c4ccccc4c3C2)cc1	> 250 µM	3.1 µg/mL (≈ 7.94 µM)	57 µL/min	3.1 µg/mL (≈ 7.94 µM)	156 µL/min	3.4	43%	3.3 µM		
O=S(=O)(C1CCOCC1)N1CCc2[nH]c3ccccc3c2C1	160 µM	25 µg/mL (≈ 78 µM)	34 µL/min	25 µg/mL (≈ 78 µM)	674 µL/min	2.9				
O=S(=O)(c1ccc(F)cc1)N1CCc2c([nH]c3ccccc23)C1	53 µM	< 1.6 µg/mL	120 µL/min	< 1.6 µg/mL	445 µL/min	4.1				
O=S(=O)(c1cccnc1)N1CCc2[nH]c3ccccc3c2C1	110 µM	6.3 µg/mL (≈ 20.1 µM)	117 µL/min	12.5 µg/mL (≈ 39.9 µM)	561 µL/min	3.1				
O=S(=O)(c1ccc(F)cc1)N1CCc2[nH]c3ccccc3c2C1	52 µM	1.6 µg/mL (≈ 4.84 µM)	120 µL/min	1.6 µg/mL (≈ 4.84 µM)	> 866 µL/min	4	59%	1.2 µM	4.2 µM	
O=C1CCN(S(=O)(=O)c2ccc(F)cc2)CC(=O)c2ccccc2N1	> 280 µM	50 µg/mL (≈ 138 µM)	40 µL/min	50 µg/mL (≈ 138 µM)	107 µL/min	2.5				
O=S(=O)(c1ccc(F)cc1)N1CCc2[nH]c3ncccc3c2C1	82 µM	12.5 µg/mL (≈ 37.7 µM)	62 µL/min	50 µg/mL (≈ 151 µM)	339 µL/min	3.2				
CS(=O)(=O)N1CCc2[nH]c3ccccc3c2C1	290 µM	25 µg/mL (≈ 99.9 µM)	12 µL/min	25 µg/mL (≈ 99.9 µM)	21 µL/min	2.6				
O=S(=O)(c1cnc[nH]1)N1CCc2[nH]c3ccccc3c2C1	170 µM	50 µg/mL (≈ 165 µM)	< 7 µL/min	50 µg/mL (≈ 165 µM)	17 µL/min	2				
O=C(O)c1ccc2[nH]c3c(c2c1)CN(S(=O)(=O)c1ccc(F)cc1)CC3	240 µM	50 µg/mL (≈ 134 µM)	< 7 µL/min	3.1 µg/mL (≈ 8.28 µM)	< 7 µL/min	1.4				
N#Cc1ccc2[nH]c3c(c2c1)CN(S(=O)(=O)c1ccc(F)cc1)CC3	33 µM	1.6 µg/mL (≈ 4.5 µM)	399 µL/min	1.6 µg/mL (≈ 4.5 µM)	230 µL/min	3.8				
NC(=O)Cn1c2c(c3ccccc31)CN(S(=O)(=O)c1ccc(F)cc1)CC2	150 µM	3.1 µg/mL (≈ 8 µM)	75 µL/min	3.1 µg/mL (≈ 8 µM)	176 µL/min					
O=C(C1CCCCC1)N1CC(=O)N2CCc3ccccc3C2C1 (centres undefined) [PRAZIQUANTEL]										0.077 µM

— ChEMBL document CHEMBL5131440, “Antischistosomal tetrahydro-γ-carboline sulfonamides” (Bioorg Med Chem Lett, 2022)
